Tests used:
Assay type in all cases: biochemical
Settings in all cases: Table 8
[1] = test system: Porcine Atria myofibrils; assay: Myofibril ATPase assay (PK/LDH NADH-coupled), atria myofibrils
Outline: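 Porcine atrial myofibril ATPase followed via PK/LDH-coupled NADH depletion, absorbance at 340 nm read every 1.5-2 min over 75 min. Slopes (mAU/min) normalized to vehicle as 100% and fit to a 4-parameter logistic; EC25% derived, plus EC50% for inhibitors.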

[2] = biological target: T1, Porcine Ventricle myofibrils (left ventricle of Yucatan minipigs) (Sus scrofa, UniProt P79293); assay: Myofibril ATPase assay (PK/LDH NADH-coupled), ventricle myofibrils
T1 construct: Myofibrils from porcine cardiac muscle was isolated from the left ventricle of Yucatan minipigs; tissue Exemplar Genetics; host or cells: left ventricle of Yucatan minipigs
T1 sequence (P79293 whole entry): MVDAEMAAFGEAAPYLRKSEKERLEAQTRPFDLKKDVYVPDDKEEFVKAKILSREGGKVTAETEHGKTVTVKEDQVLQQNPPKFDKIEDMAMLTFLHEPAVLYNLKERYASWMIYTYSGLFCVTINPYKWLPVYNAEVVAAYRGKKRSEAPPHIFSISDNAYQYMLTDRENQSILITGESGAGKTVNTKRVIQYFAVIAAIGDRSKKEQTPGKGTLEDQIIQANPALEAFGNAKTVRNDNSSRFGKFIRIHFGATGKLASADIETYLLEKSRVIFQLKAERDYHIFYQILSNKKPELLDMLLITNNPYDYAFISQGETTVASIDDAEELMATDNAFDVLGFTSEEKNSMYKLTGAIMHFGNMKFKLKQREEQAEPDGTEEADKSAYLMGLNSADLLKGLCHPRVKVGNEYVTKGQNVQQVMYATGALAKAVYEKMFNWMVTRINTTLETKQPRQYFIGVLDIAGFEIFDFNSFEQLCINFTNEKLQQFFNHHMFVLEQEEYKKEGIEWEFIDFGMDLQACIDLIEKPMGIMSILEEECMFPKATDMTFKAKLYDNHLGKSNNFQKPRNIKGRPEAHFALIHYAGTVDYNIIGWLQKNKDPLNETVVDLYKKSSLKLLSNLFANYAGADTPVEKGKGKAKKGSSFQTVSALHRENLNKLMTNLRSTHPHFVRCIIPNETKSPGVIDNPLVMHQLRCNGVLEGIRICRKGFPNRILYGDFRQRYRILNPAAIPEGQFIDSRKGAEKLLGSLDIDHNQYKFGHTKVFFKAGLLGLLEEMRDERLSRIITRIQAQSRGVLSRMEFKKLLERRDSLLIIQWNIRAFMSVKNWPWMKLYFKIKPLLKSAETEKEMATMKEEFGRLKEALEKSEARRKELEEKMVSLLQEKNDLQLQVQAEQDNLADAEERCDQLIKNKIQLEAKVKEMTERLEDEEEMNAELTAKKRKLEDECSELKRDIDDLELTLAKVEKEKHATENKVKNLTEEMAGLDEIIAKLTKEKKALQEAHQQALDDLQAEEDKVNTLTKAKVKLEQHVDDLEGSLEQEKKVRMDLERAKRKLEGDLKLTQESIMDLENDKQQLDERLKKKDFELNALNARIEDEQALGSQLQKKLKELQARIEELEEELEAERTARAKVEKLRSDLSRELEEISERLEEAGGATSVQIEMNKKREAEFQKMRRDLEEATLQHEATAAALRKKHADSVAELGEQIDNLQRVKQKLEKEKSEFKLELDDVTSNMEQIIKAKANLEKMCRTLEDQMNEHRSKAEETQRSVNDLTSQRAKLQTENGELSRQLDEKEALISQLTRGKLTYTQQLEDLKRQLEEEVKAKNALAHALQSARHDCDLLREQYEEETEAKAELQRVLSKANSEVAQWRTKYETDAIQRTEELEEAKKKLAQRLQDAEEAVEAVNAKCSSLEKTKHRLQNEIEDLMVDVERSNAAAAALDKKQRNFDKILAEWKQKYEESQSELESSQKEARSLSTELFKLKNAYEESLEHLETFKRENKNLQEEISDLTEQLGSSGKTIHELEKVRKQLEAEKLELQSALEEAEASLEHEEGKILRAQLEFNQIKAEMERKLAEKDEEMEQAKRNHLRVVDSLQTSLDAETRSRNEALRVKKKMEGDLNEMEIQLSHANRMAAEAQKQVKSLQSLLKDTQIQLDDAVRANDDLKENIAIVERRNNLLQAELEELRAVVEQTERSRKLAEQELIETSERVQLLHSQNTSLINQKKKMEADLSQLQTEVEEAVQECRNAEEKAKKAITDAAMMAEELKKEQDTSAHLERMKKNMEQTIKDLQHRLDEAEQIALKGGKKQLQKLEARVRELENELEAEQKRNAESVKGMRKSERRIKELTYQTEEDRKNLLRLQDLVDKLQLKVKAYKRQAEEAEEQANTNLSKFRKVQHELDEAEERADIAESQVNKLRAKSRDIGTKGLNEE
Outline: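 Yucatan minipig left-ventricle myofibrils; ATPase measured by PK/LDH-coupled NADH loss at 340 nm, read every 1.5-2 min for 75 min. Slopes normalized to vehicle (100%) and fit to 4-parameter logistic model; EC25 and, for inhibitors, EC50 calculated.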

[3] = test system: Rabbit Skeletal myofibrils (rabbit psoas muscle); assay: Myofibril ATPase assay (PK/LDH NADH-coupled), skeletal myofibrils
Outline: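 Rabbit psoas myofibrils in pCa (PIPES/CaCl2/EGTA, pH 7.0) buffer; ADP coupled via PK/LDH to NADH loss, read at 340 nm every 1.5–2 min for 75 min. Slopes normalized to vehicle (100%) and fit to 4-parameter logistic for EC25, plus EC50 for inhibitors.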

| SMILES | Porcine Atria IC25 [1] [µM] | Porcine Ventricle IC25 [2] [µM] | Rabbit Psoas IC25 [3] [µM] |
| --- | --- | --- | --- |
| C[C@H](NC(=O)[C@H](C)N1Cc2c(Br)cccc2NC1=O)c1ccc(F)cc1F [Compound B227] | 0.06 | 0.2485 | 0.0127 |
| C[C@H](NC(=O)[C@@H](C)N1Cc2c(Br)cccc2NC1=O)c1ccc(F)cc1F [Compound B228] | 0.32 | 2.111 | 0.2844 |
| C[C@H](NC(=O)CN1C(=O)Nc2ccccc2C12CC2)c1ccc(F)cc1F [Compound B229, N-[(1S)-1-(2,4-Difluorophenyl)ethyl]-2-{2′-oxo-1′H-spiro[cyclopropane-1,4′-quinazolin]-3′-yl}acetamide] | 0.06 | 0.156 | 0.0356 |
| C[C@H](NC(=O)CN1C(=O)Nc2ccc(F)cc2[C@H]1C(F)(F)F)c1ccc(F)cc1F [Compound B235] | 1.15 | 100 | 100 |
| C[C@@H](NC(=O)[C@H](C)N1Cc2cc(F)ccc2NC1=O)c1ccc(F)cc1F [Compound B239] | 100.00 | 100 | 7.191 |
| C[C@H](C(=O)N[C@H](C)c1ccc(F)cc1F)N1Cc2cc(F)ccc2NC1=O [Compound B240] | 25.37 | 100 | 0.8825 |
| C[C@H](NC(=O)[C@@H](C)N1Cc2cc(F)ccc2NC1=O)c1ccc(F)cc1F [Compound B241] | 0.11 | 1.243 | 0.034 |
| C[C@H](NC(=O)[C@H](C)N1Cc2cc(F)ccc2NC1=O)c1ccc(F)cc1F [Compound B242] | 58.71 | 100 | 0.3555 |
| CC(C(=O)N[C@@H](C)c1ccc(F)cc1F)N1Cc2ccccc2NC1=O (stereo partly drawn) [Compound B243] | 0.19 | 11.52 | 10.96 |
| CC1c2ccccc2NC(=O)N1CC(=O)N[C@@H](C)c1ccc(F)cc1F (stereo partly drawn) [Compound B244, N-[(1S)-1-(2,4-Difluorophenyl)ethyl]-2-(4-methyl-2-oxo-1,4-dihydroquinazolin-3-yl)acetamide] | 2.50 | 4.818 | 0.695 |
| C[C@H](NC(=O)CN1C(=O)Nc2ccccc2C1(C)C)c1ccc(F)cc1F [Compound B245] | 0.94 | 11.66 | 9.295 |
| C[C@H](NC(=O)CN1C(=O)Nc2ccccc2C12CCCCC2)c1ccc(F)cc1F [Compound B246] | 100.00 | 73.7 | 19.62 |
| C[C@H](NC(=O)CN1Cc2c(F)cccc2NC1=O)c1ccc(F)cc1F [Compound B248, N-[(1S)-1-(2,4-Difluorophenyl)ethyl]-2-(5-fluoro-2-oxo-1,4-dihydroquinazolin-3-yl)acetamide] | 0.05 | 0.2832 | 0.062 |
| C[C@H](NC(=O)CN1Cc2ccccc2NC1=O)c1ccc(F)cc1F [Compound B249, N-[(1S)-1-(2,4-difluorophenyl)ethyl]-2-(2-oxo-1,4-dihydroquinazolin-3-yl)acetamide] | 0.07 | 0.6589 | 0.02766 |
| C[C@@H](NC(=O)CN1Cc2c(ccc(F)c2F)NC1=O)c1cc2cccnc2cn1 [Compound B270] | 1.18 | 100.00 | 100.00 |
| C[C@H](NC(=O)CN1Cc2c(ccc(F)c2F)NC1=O)c1cc2cccnc2cn1 [Compound B271] | 100.00 | 55.13 | 100.00 |
| C[C@@H](NC(=O)CN1Cc2c(ccc(F)c2F)NC1=O)c1ccc2cnccc2n1 [Compound B274] | 1.10 | 95.97 | 100.00 |
| C[C@H](NC(=O)CN1Cc2c(ccc(F)c2F)NC1=O)c1ccc2cnccc2n1 [Compound B275] | 8.27 | 100.00 | 100.00 |

The remaining lines, values ahead:

| Porcine Atria IC25 [1] [µM] | Porcine Ventricle IC25 [2] [µM] | Rabbit Psoas IC25 [3] [µM] | SMILES |
| --- | --- | --- | --- |
| 0.22 | 1.835 | 0.182 | C[C@H](NC(=O)CN1Cc2cc(F)ccc2NC1=O)c1ncc(F)cc1F [Compound B230] |
| 0.03 | 0.2316 | 0.0333 | C[C@H](NC(=O)[C@@H](C)N1Cc2c(ccc(F)c2F)NC1=O)c1ccc(F)cc1F [Compound B236] |
| 0.28 | 8.122 | 0.3164 | C[C@H](NC(=O)[C@H](C)N1Cc2c(ccc(F)c2F)NC1=O)c1ccc(F)cc1F [Compound B237] |
| 0.03 | 0.1435 | 0.0116 | C[C@H](NC(=O)CN1Cc2c(ccc(F)c2F)NC1=O)c1ccc(F)cc1F [Compound B238] |
| 81.49 | 60.47 | 36.83 | C[C@@H](NC(=O)CN1Cc2c(ccc(F)c2F)NC1=O)c1ncc(C(N)=O)cc1O [Compound B250] |
| 8.81 | 100.00 | 100.00 | C[C@@H](NC(=O)CN1Cc2cc(CN(C)C)ccc2NC1=O)c1ncc(C#N)cc1F [Compound B251] |
| 81.49 | 60.47 | 36.83 | C[C@H](NC(=O)CN1Cc2cc(CN(C)C)ccc2NC1=O)c1ncc(C#N)cc1F [Compound B252] |
| 100.00 | 100.00 | 86.41 | CNC(=O)N1CC2(C1)c1cc(F)ccc1NC(=O)N2CC(=O)N[C@H](C)c1ncc(C#N)cc1F [Compound B253] |
| 100.00 | 100.00 | 100.00 | CNC(=O)N1CC2(C1)c1cc(F)ccc1NC(=O)N2CC(=O)N[C@@H](C)c1ncc(C#N)cc1F [Compound B254] |
| 100.00 | 100.00 | 100.00 | CC(=O)N1CC2(C1)c1cc(F)ccc1NC(=O)N2CC(=O)N[C@H](C)c1ncc(C#N)cc1F [Compound B255] |
| 75.74 | 46.27 | 39.41 | CC(=O)N1CC2(C1)c1cc(F)ccc1NC(=O)N2CC(=O)N[C@@H](C)c1ncc(C#N)cc1F [Compound B256] |
| 0.52 | 0.89 | 100.00 | C[C@@H](NC(=O)CN1Cc2c(ccc(F)c2F)NC1=O)c1ncc(-n2ncnn2)cc1F [Compound B264] |
| 1.88 | 5.36 | 100.00 | C[C@H](NC(=O)CN1Cc2c(ccc(F)c2F)NC1=O)c1ncc(-n2ncnn2)cc1F [Compound B265] |
| 0.05 | 1.38 | 0.95 | C[C@@H](NC(=O)C(C)(C)N1Cc2c(ccc(F)c2F)NC1=O)c1ncc(C#N)cc1F [Compound B266] |
| 0.18 | 3.96 | 18.40 | C[C@H](NC(=O)C(C)(C)N1Cc2c(ccc(F)c2F)NC1=O)c1ncc(C#N)cc1F [Compound B267] |
| 0.11 | 3.06 | 6.91 | C[C@@H](NC(=O)C1(N2Cc3c(ccc(F)c3F)NC2=O)CC1)c1ncc(C#N)cc1F [Compound B268] |
| 0.05 | 0.75 | 0.74 | C[C@@H](NC(=O)[C@H](C)N1Cc2c(ccc(F)c2F)NC1=O)c1ncc(C#N)cc1F [Compound B272] |
| 1.96 | 22.58 | 1.57 | C[C@H](C(=O)N[C@H](C)c1ncc(C#N)cc1F)N1Cc2c(ccc(F)c2F)NC1=O [Compound B273] |
| 100.00 | 23.74 | 30.80 | C[C@@H](NC(=O)CN1Cc2cc3c(cc2NC1=O)OCCO3)c1ncc(C#N)cc1F [Compound B276] |
| 77.49 | 73.20 | 100.00 | C[C@H](NC(=O)CN1Cc2cc3c(cc2NC1=O)OCCO3)c1ncc(C#N)cc1F [Compound B277] |
| 0.03 | 0.09 | 0.03 | C[C@H](NC(=O)[C@H](C)N1Cc2c(ccc(F)c2F)NC1=O)c1ncc(C#N)cc1F [Compound B278] |
| 0.11 | 0.70 | 0.57 | C[C@H](NC(=O)[C@@H](C)N1Cc2c(ccc(F)c2F)NC1=O)c1ncc(C#N)cc1F [Compound B279] |
